# In patent US20240415801A1, “Methods and Compositions for Treating Fibroids” (Lundquist Institute for Biomedical Innovation at …, priority 2023, published 2024):
# Experiments:
# [1] = system: fibroid xenografts; assay: Quantitative RT-PCR of fibroid xenografts (Example 1); type: in vivo, SCID/Beige mice; conditions: 20 mg/kg daily, 8 weeks
# Method: Quantitative RT-PCR was performed as previously described. Selected gene expression levels were assessed utilizing the Invitrogen StepOne System, with normalization against 18S. Triplicate reactions were conducted, and relative mRNA expression was calculated using the comparative cycle threshold method (2−ΔΔCt), with results presented as fold change relative to the control group. The primer sequences used are shown in the following Sequence Table: […]
# [2] = system: leiomyoma smooth muscle cells (LSMC); assay: 3D spheroid culture of leiomyoma smooth muscle cells, qRT-PCR (Example 2); type: cell-based, human; conditions: 3D cultured LSMC, 5 μM, 24 h
# Method: Leiomyoma smooth muscle cells (LSMC) were cultured in DMEM supplemented with 10% fetal bovine serum until reaching confluence with a change of media every 2-3 days. Cells at passages p1 to p3 were used for all experiments. Isolated LSMC were plated in 6-well plates (1.5×10^5 cells/well) which were coated with 0.5% agarose gel and incubated 48 hours for spheroid formation with size ranging from 50 μm to 250 μm in diameter (1). For blocking IκBα phosphorylation and nuclear translocation of NFκB, LSMC spheroids were treated with 5 μM of Bay 11-7082 (Cayman Chemical, Ann Arbor, Michigan) for 24 hours. […]
# Total RNA was extracted from the xenografts using TRIzol (Thermo Fisher Scientific Inc., Waltham, MA). RNA concentration and integrity was determined using a Nanodrop 2000c spectrophotometer (Thermo Scientific, Wilmington, DE) and Agilent 2100 Bioanalyzer (Agilent Technologies, Santa Clara, CA) as previously described (7, 8). […] Quantitative RT-PCR was carried out using SYBR gene expression master mix (Applied Biosystems). […] The expression levels of selected genes were quantified using Invitrogen StepOne System with FBXW2 (F-box and WD repeat domain containing 2) used for normalization (9). All reactions were run in triplicate and relative mRNA expression was determined using the comparative cycle threshold method (2−ΔΔCq), as recommended by the supplier (Applied Biosystems). […]
# [3] = system: fibroid xenografts; assay: Quantitative RT-PCR of xenografts (Example 2); type: in vivo, SCID/Beige mice; conditions: 5 mg/kg, 8 weeks, n=13
# Method: Total RNA was extracted from the xenografts using TRIzol (Thermo Fisher Scientific Inc., Waltham, MA). RNA concentration and integrity was determined using a Nanodrop 2000c spectrophotometer (Thermo Scientific, Wilmington, DE) and Agilent 2100 Bioanalyzer (Agilent Technologies, Santa Clara, CA) as previously described (7, 8). Briefly, 2 μg of RNA was reverse transcribed using random primers for selected genes according to the manufacturer's guidelines (Applied Biosystems, Carlsbad, CA). Quantitative RT-PCR was carried out using SYBR gene expression master mix (Applied Biosystems). Reactions were incubated for 10 min at 95° C. followed by 40 cycles for 15 seconds at 95° C. and 1 min at 60° C. The expression levels of selected genes were quantified using Invitrogen StepOne System with FBXW2 (F-box and WD repeat domain containing 2) used for normalization (9). All reactions were run in triplicate and relative mRNA expression was determined using the comparative cycle threshold method (2−ΔΔCq), as recommended by the supplier (Applied Biosystems). Values were expressed as fold change compared to the control group. […]
# [4] = system: fibroid xenografts; assay: Histology and immunohistochemistry of xenografts (Example 2); type: in vivo, SCID/Beige mice; conditions: 5 mg/kg, 8 weeks
# Text: After fixation with 4% paraformaldehyde and routine dehydration, a portion of xenograft samples were embedded in paraffin. To evaluate histologic characteristics, 5-μm-thick paraffin sections of xenografts were stained with hematoxylin and eosin (H-3502, Vector Laboratories, Inc.) and Masson's trichrome stain (HT15-1 KT, Sigma-Aldrich) according to the manufacturer's instructions.
# For Immunohistochemistry, the xenografts were fixed with 4% paraformaldehyde in PBS, and subsequently transferred to PBS containing 30% sucrose (wt/vol) until equilibrated in cold (4° C.). After fixation, 5-μm-thick paraffin sections were treated three times with Histo-Clear™ (National Diagnostics, Atlanta, GA) for 5 min, and rehydrated by a sequential ethanol wash, and then incubated in target retrieval solution (Dako, Carpinteria, CA) in a microwave for 10 min in order to retrieve the antigens. For blocking, tissues were incubated for 10 minutes with 3% solution of H2O2 followed by incubation with PBS-5% normal goat serum-0.2% Triton X-100. Tissue sections were incubated with primary antibody rabbit anti-Ki67 (dilution 1:250, 27309-1-AP, Proteintech Group, Inc), rabbit anti-cleaved caspase-3 (dilution 1:50, #9664, Cell Signaling Technology), rabbit anti-CCND1 (dilution 1:50, #55506, Cell Signaling Technology) and mouse anti-E2F1 (dilution 1:50, sc-251, Santa Cruz Biotechnology, Inc.) overnight at 4° C. in a humidified chamber. The antigens were then visualized using biotinylated antibodies and streptavidin, conjugated with horseradish peroxidase. Control sections were incubated with the secondary antibody, with replacement of primary antibody with the dilution reagent (Dako). Diaminobenzidine (Dako) which served as the substrate. […] Immunostained sections were examined under a microscope (Olympus IX83; Olympus Surgical Technologies America) and five representative images of each slide were quantitatively analyzed with the use of Halo software (Indica Labs Inc.) and were averaged for comparative analysis between vehicle and […] treatment groups in a blinded fashion.
structure (smiles),measurement,setting,value
Cc1ccc(S(=O)(=O)/C=C/C#N)cc1 [Bay 11-7082],expression of miR-29c and miR-200c,[1],significant increase
same,"mRNA expression of SPARC, TDO2, MYD88, TLR6, TLR3, IL6, TNFα, TNFRSF11A, IL1β, COL3A1, FN1, LOX, TGFB3, CCND1, E2F1, CKS2, PRL, ESR1, PGR, VEGFC, PDGFA, HTR1B",[1]; n=10,significant decrease
same,"expression of IL8, TGFB3, Col3A1, CDK2, CCND1, DNMT1 and DNMT3A",[2],significant decrease
same,"mRNA expression of COL1A1, COL3A1, FN1, TGF-β3, CCND1, CDK2, E2F1, EZH2, MyD88 and SPARC",[3],significant decrease
same,"cell proliferation: nuclei staining for Ki67, CCND1 and E2F1",[4],reduced number of nuclei staining
same,"staining for collagen (Masson's trichrome, blue stain)",[4],significant decrease
same,staining of cleaved caspase 3 (apoptosis),[4],no significant change
